Literature values, collected in patent US6855835B2, “Allomorph of isomer Z hydrochloride of alkylaminofurane derivative” (Pharmexcel SRL, priority 2000, dated 2005).

Key:
[1] = form 2 compared with form 1; quoted from prior patent (6)
histamine H2-receptors = settings: Z isomer compared with E isomer; suggested by authors (10, 11)
Chain of histamine H2-receptors (P25021 whole entry): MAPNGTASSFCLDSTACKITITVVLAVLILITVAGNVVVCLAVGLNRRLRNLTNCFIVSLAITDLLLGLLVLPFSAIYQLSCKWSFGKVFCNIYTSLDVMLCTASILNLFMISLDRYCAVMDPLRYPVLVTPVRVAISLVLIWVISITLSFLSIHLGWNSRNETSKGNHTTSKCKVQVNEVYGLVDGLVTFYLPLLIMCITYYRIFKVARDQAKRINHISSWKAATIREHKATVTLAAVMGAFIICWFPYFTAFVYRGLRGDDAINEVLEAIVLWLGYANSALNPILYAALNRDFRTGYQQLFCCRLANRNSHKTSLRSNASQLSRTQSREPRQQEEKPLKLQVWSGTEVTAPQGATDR

For `CNC(=C[N+](=O)[O-])NCCSCc1ccc(CN(C)C)o1.Cl` (racemic) [form 2, N-[2-[[[5-(dimethylamino)methyl-2-furanyl]methyl]thio]ethyl]-N′-methyl-2-nitro-1,1-ethenediamine hydrochloride], the hygroscopicity [1] is given as “less hygroscopic than form 1”.

For `CN/C(=C/[N+](=O)[O-])NCCSCc1ccc(CN(C)C)o1` (single isomer, unassigned) [Z, (N-[2-[[[5-(dimethylamino)methyl-2-furanyl]methyl]thio]ethyl]-N′-methyl-2-nitro-1,1-ethenediamine)], the “affinity for histamine H2-receptors” value (histamine H2-receptors) is given as “greater configurational affinity”.
